# Data: patent publication US9018237B2, “Methods for improved wound closure employing olivamine and endothelial cells” (priority 2009, dated 2015)
# Tested on: human microvascular endothelial cells
# Assay: in vitro model of wound healing (cell migration), time for 50% of wound to heal
# Format: cell-based
# Source text: The time for wounds to heal by 50% under the various treatment conditions was quantified.
structure (smiles),measurement,setting,value
"CC(=O)N[C@@H](CS)C(=O)O [N-acetylcysteine, reference compound]",effect on time and extent of wound healing (in words),compared to untreated or to the additive effect of the compounds,increased the time to 50% healing compared to untreated
OCCc1ccc(O)c(O)c1 [Hydroxytyrosol],less effective in wound healing than the present art,hydroxytyrosol alone versus the combination (Table 1),30%
NCCS(=O)(=O)O [L-Taurine],Time for 50% wound to heal,"Table 9, single ingredients, Present Art and Present Art without one ingredient",22.5 h
